In this experiment the target is T1, RORgT (Homo sapiens, UniProt P51449).
T1 construct: Gal4 (fusion partner); expressed in transfected cells; host or cells: engineered Jurkat cells (Jurkat pEx/Gal/hRORγ CLBD/HYG pG5luc/blast)
T1 sequence (P51449 267-516): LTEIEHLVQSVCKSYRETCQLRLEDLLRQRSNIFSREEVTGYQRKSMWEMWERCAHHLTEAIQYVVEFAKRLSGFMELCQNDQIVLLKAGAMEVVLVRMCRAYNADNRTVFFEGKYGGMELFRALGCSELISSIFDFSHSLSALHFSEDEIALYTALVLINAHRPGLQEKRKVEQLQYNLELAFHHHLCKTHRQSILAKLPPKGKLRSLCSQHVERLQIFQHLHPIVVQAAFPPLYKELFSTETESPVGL
Nature of the experiment: RORgT Gal4 Luciferase Reporter Gene Assay. As to conditions: engineered Jurkat cells overexpressing RORgT (LBD or full length) with Gal4 Luc reporter; 18 hours at 37° C.; 40 μM to 0.67 nM; read-out: RORg_GAL4 EC50. In kind it is cell-based. The method, boiled down:
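Cells exposed to compound 18 hours at 37° C, then lysed for luciferase luminescence. Inhibition of constitutive activity expressed as percent reduction of signal window relative to a control compound.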

For `COc1ccc(Oc2c(Cl)ccc(C(=O)NCCN3CCCC3=O)c2Cl)cc1C(C)C` [Example 83], the EC50 turned out to be 1170 nM.
For the compound `COc1ccc(Oc2c(Cl)ccc(C(=O)NCCC3CCS(=O)(=O)CC3)c2Cl)cc1C(C)C` [Example 84], the EC50 is 152 nM.
The figure for `COc1ccc(Oc2c(Cl)ccc(C(=O)NCC3CCN(S(C)(=O)=O)CC3)c2Cl)cc1C(C)C` [Example 86] is 12 nM; for `COc1ccc(Oc2c(Cl)ccc(CNC(=O)Cc3cccc(S(C)(=O)=O)c3)c2Cl)cc1C(C)C` [Example 87] it is 541 nM; for `COc1ccc(Oc2c(Cl)ccc(CNC(=O)C3CN(S(C)(=O)=O)C3)c2Cl)cc1C(C)C` [Example 88] it is 24 nM.
Regarding `COc1ccc(Oc2c(Cl)ccc(CNC(=O)CN3CCNCC3)c2Cl)cc1C(C)C` [Example 89], the concentration for a half-maximal effect (EC50) was 4080 nM.
Regarding `COc1ccc(Oc2c(Cl)ccc(CNC(=O)CN3CCN(S(N)(=O)=O)CC3)c2Cl)cc1C(C)C` [Example 90], the half-maximal effective concentration (EC50) is 13 nM.
For the compound `COc1ccc(Oc2c(Cl)ccc(C(=O)NCC3CN(S(C)(=O)=O)C3)c2Cl)cc1C(C)C` [Example 91], the EC50 was 88 nM.
For `COc1ccc(Oc2c(Cl)ccc(C(=O)NCC3CCN(S(=O)(=O)C4CC4)CC3)c2Cl)cc1C(C)C` [Example 92], the EC50 was found to be 24 nM.
`COc1ccc(Oc2c(Cl)ccc(C(=O)NCC3CCN(S(=O)(=O)C(C)C)CC3)c2Cl)cc1C(C)C` [Example 93]: the EC50 turned out to be 167 nM.
The figure for `CCS(=O)(=O)N1CCC(CNC(=O)c2ccc(Cl)c(Oc3ccc(OC)c(C(C)C)c3)c2Cl)CC1` [Example 94] is 26 nM; for `COc1ccc(Oc2c(Cl)ccc(CNC(=O)C3CCN(S(=O)(=O)C(C)C)CC3)c2Cl)cc1C(C)C` [Example 95] it is 24 nM.
For `COc1ccc(Oc2c(Cl)ccc(C(=O)NCC3CCN(S(N)(=O)=O)CC3)c2Cl)cc1C(C)C` [Example 96], the half-maximal effective concentration (EC50) is 13 nM.
The figure for `COc1ccc(Oc2c(Cl)ccc(CNC(=O)C3CCN(S(=O)(=O)C4CC4)CC3)c2Cl)cc1C(C)C` [Example 97] is 14 nM; for `COc1ccc(Oc2c(Cl)ccc(CNS(=O)(=O)C3CCN(S(N)(=O)=O)CC3)c2Cl)cc1C(C)C` [Example 98] it is 20 nM.
For the compound `COc1ccc(Oc2c(Cl)ccc(C(=O)NCc3ccc(S(=O)(=O)N(C)C)nc3)c2Cl)cc1C(C)C` [Example 99], the 50% effective concentration (EC50) turned out to be 153 nM.
Regarding `COc1ccc(Oc2c(Cl)ccc(C(=O)NCC3CCS(=O)(=O)CC3)c2Cl)cc1C(C)C` [Example 100], the EC50 came out at 117 nM.
The value for `COc1ccc(Oc2c(Cl)ccc(C(=O)NCc3ccc(S(N)(=O)=O)nc3)c2Cl)cc1C(C)C` [Example 101] was 14 nM; that for `CNC(=O)c1ccc(CNC(=O)c2ccc(Cl)c(Oc3ccc(OC)c(C(C)C)c3)c2Cl)cc1` [Example 102] was 455 nM; that for `COc1ccc(Oc2c(Cl)ccc(C(=O)N(C)CC3CCN(S(N)(=O)=O)CC3)c2Cl)cc1C(C)C` [Example 103] was 50 nM.
The figure for `COc1ccc(Oc2c(Cl)ccc(C(=O)N(C)CC3CCN(S(C)(=O)=O)CC3)c2Cl)cc1C(C)C` [Example 104] is 15 nM; for `COc1ccc(Oc2c(Cl)ccc(C(=O)NC(C)c3ccc(S(C)(=O)=O)cc3)c2Cl)cc1C(C)C` (centres unmarked) [Example 105] it is 30 nM; for `COc1ccc(Oc2c(Cl)ccc(NC(=O)CN3CCN(S(C)(=O)=O)CC3)c2Cl)cc1C(C)C` [Example 106] it is 32 nM.
The figure for `COc1ccc(Oc2c(Cl)ccc(C(=O)N3CCC4(CCN(S(C)(=O)=O)CC4)C3)c2Cl)cc1C(C)C` [Example 107] is 35 nM.
For `COc1ccc(Oc2c(Cl)ccc(C(=O)N3CCc4cc(N)ccc4C3)c2Cl)cc1C(C)C` [Example 108], the concentration giving a half-maximal response (EC50) is 766 nM.
For `COc1ccc(Oc2c(Cl)ccc(C(=O)N3CCC4(CC3)CN(S(C)(=O)=O)C4)c2Cl)cc1C(C)C` [Example 109], the concentration giving a half-maximal response (EC50) turned out to be 17 nM.
Consider `COc1ccc(Oc2c(Cl)ccc(C(=O)N(C)Cc3ccc(S(N)(=O)=O)cc3)c2Cl)cc1C(C)C` [Example 110], for which the 50% effective concentration (EC50) was determined as 39 nM.
Regarding `COC(=O)N1CCC(CNC(=O)c2ccc(Cl)c(Oc3ccc(OC)c(C(C)C)c3)c2Cl)CC1` [Example 111], the EC50 came to 936 nM.
As to `CC(C)c1cc(F)cc(Oc2c(Cl)ccc(C(=O)N3CCC4(CC3)CN(S(C)(=O)=O)C4)c2Cl)c1` [Example 112], the EC50 was 14 nM.
With `CC(C)c1cc(Oc2c(Cl)ccc(C(=O)NCC3CCN(S(C)(=O)=O)CC3)c2Cl)ccc1F` [Example 113], the EC50 worked out at 27 nM.
In the case of `CC(C)c1cc(Oc2c(Cl)ccc(C(=O)NCc3ccc(S(N)(=O)=O)cc3)c2Cl)ccc1F` [Example 114], the 50% effective concentration (EC50) amounted to 5.2 nM.
On to `CCS(=O)(=O)N1CCC(CNC(=O)c2ccc(Cl)c(Oc3cc(F)cc(C(C)C)c3)c2Cl)CC1` [Example 115], for which the EC50 is 25 nM.
The value for `CC(C)c1cc(F)cc(Oc2c(Cl)ccc(C(=O)NCC3CCN(S(=O)(=O)C(C)C)CC3)c2Cl)c1` [Example 116] was 350 nM; that for `COc1ncc(Oc2c(Cl)ccc(C(=O)NCc3ccc(S(N)(=O)=O)cc3)c2Cl)cc1C(C)C` [Example 117] was 6 nM; that for `COc1ncc(Oc2c(Cl)ccc(C(=O)N3CCC4(CC3)CN(S(C)(=O)=O)C4)c2Cl)cc1C(C)C` [Example 118] was 61 nM.
The figure for `COc1ncc(Oc2c(Cl)cc(NC(=O)CC3CCN(S(=O)(=O)C4CC4)CC3)cc2Cl)cc1C(C)C` [Example 119] is 11 nM; for `CCS(=O)(=O)N1CCC(CC(=O)Nc2cc(Cl)c(Oc3cnc(OC)c(C(C)C)c3)c(Cl)c2)CC1` [Example 120] it is 37 nM.
On to `COc1ncc(Oc2c(Cl)cc(NC(=O)CC3CCN(S(N)(=O)=O)CC3)cc2Cl)cc1C(C)C` [Example 121], for which the concentration giving a half-maximal response (EC50) stood at 13 nM.
Turning to `CC(C)c1cc(F)cc(Oc2c(Cl)ccc(C(=O)NCc3ccc(S(C)(=O)=O)cc3)c2Cl)c1` [Example 122], the concentration giving a half-maximal response (EC50) came to 3.6 nM.
For the compound `COc1ncc(Oc2c(Cl)ccc(C(=O)NCc3ccc(S(C)(=O)=O)cc3)c2Cl)cc1C(C)C` [Example 123], the concentration for a half-maximal effect (EC50) was 5.4 nM.
Consider `CCS(=O)(=O)N1CC2(CCN(C(=O)c3ccc(Cl)c(Oc4cc(F)cc(C(C)C)c4)c3Cl)CC2)C1` [Example 124], for which the EC50 turned out to be 121 nM.
As to `CC(C)c1cc(F)cc(Oc2c(Cl)ccc(C(=O)N3CCC4(CC3)CN(S(=O)(=O)C3CC3)C4)c2Cl)c1` [Example 125], the half-maximal effective concentration (EC50) was found to be 548 nM.
For `COc1ncc(Oc2c(Cl)cc(NC(=O)CC3CCN(S(C)(=O)=O)CC3)cc2Cl)cc1C1CC1` [Example 126], the 50% effective concentration (EC50) stood at 3.2 nM.
The value for `COc1ncc(Oc2c(Cl)cc(NC(=O)CC3CCN(S(=O)(=O)CCl)CC3)cc2Cl)cc1C(C)C` [Example 127] was 35 nM; that for `CC(C)c1cc(F)cc(Oc2c(Cl)ccc(C(=O)NCc3cnn(S(C)(=O)=O)c3)c2Cl)c1` [Example 128] was 139 nM.
Turning to `COc1ncc(Oc2c(Cl)ccc(NC(=O)CC3CCN(S(C)(=O)=O)CC3)c2Cl)cc1C(C)C` [Example 129], the EC50 was 11 nM.
Regarding `CC(C)c1cc(F)cc(Oc2c(Cl)ccc(NC(=O)CC3CCN(S(C)(=O)=O)CC3)c2Cl)c1` [Example 130], the EC50 is 5.5 nM.
With `CC(C)c1cc(Oc2c(Cl)ccc(C(=O)NCc3ccc(S(C)(=O)=O)cc3)c2Cl)ccc1F` [Example 131], the concentration giving a half-maximal response (EC50) came out at 2.7 nM.
For `CC(C)c1cc(Oc2c(Cl)ccc(C(=O)N3CCC4(CC3)CN(S(C)(=O)=O)C4)c2Cl)ccc1F` [Example 132], the half-maximal effective concentration (EC50) is 6.3 nM.
For `C=C(c1cc(Oc2c(Cl)cc(NC(=O)CC3CCN(S(C)(=O)=O)CC3)cc2Cl)cnc1OC)C(F)(F)F` [Example 133], the EC50 was found to be 4.6 nM.
As to `COc1ncc(Oc2c(Cl)cc(NC(=O)CC3CCN(S(C)(=O)=O)CC3)cc2Cl)cc1C(C)C(F)(F)F` (centres unmarked) [Example 134], the EC50 was found to be 3.2 nM.
In the case of `COc1ncc(Oc2c(Cl)ccc(C(=O)NC(C)c3ccc(S(C)(=O)=O)cc3)c2Cl)cc1C(C)C` (centres unmarked) [Example 135], the EC50 was 11 nM.
The figure for `CC(C)c1cc(F)cc(Oc2c(Cl)ccc(C(=O)NC(C)c3ccc(S(C)(=O)=O)cc3)c2Cl)c1` (centres unmarked) [Example 136] is 13 nM; for `COc1ncc(Oc2c(Cl)ccc(C(=O)NC(C)c3ccc(S(C)(=O)=O)cc3)c2Cl)cc1C(C)C` (centres unmarked) [Example 137] it is 14 nM.
Turning to `COc1ncc(Oc2c(Cl)ccc(C(=O)NCc3cccc(S(C)(=O)=O)c3)c2Cl)cc1C(C)C` [Example 138], the EC50 is 225 nM.
As to `CC(C)c1cc(F)cc(Oc2c(Cl)ccc(C(=O)NCc3cccc(S(C)(=O)=O)c3)c2Cl)c1` [Example 139], the concentration giving a half-maximal response (EC50) worked out at 187 nM.
Take `CC(C)c1cc(F)cc(Oc2c(Cl)ccc(C(=O)NC(C)c3ccc(S(C)(=O)=O)cc3)c2Cl)c1` (centres unmarked) [Example 140]: the EC50 amounted to 9.3 nM.
Consider `COc1ncc(Oc2c(Cl)ccc(NC(=O)Cc3cccc(S(C)(=O)=O)c3)c2Cl)cc1C(C)C` [Example 141], for which the EC50 came out at 182 nM.
Regarding `CC(C)c1cc(F)cc(Oc2c(Cl)ccc(C(=O)NC(C)c3ccc(S(C)(=O)=O)cc3)c2Cl)c1` (centres unmarked) [Example 142], the EC50 was found to be 71 nM.
As for `COc1ncc(Oc2c(Cl)ccc(C(=O)NC(C)c3ccc(S(C)(=O)=O)cc3)c2Cl)cc1C(C)C` (centres unmarked) [Example 143], the half-maximal effective concentration (EC50) was found to be 11.5 nM.
In the case of `COc1ncc(Oc2c(Cl)ccc(CNC(=O)C3CCN(S(C)(=O)=O)CC3)c2Cl)cc1C(C)C` [Example 144], the concentration giving a half-maximal response (EC50) was found to be 6.6 nM.
Take `COc1ncc(Oc2c(Cl)ccc(CNC(=O)c3ccc(S(C)(=O)=O)cc3)c2Cl)cc1C(C)C` [Example 145]: the concentration giving a half-maximal response (EC50) turned out to be 8.5 nM.

(Values after patent US20220306630A1, “AGONISTS OF ROR GAMMAt” (BRISTOL-MYERS SQUIBB COMPANY, priority 2019, published 2022).)
